{
  "source": "patent US20110195924A1",
  "about": "“Methods of Inhibiting the Interaction Between S100P and the Receptor for Advanced Glycation End-Products” (priority 2008, published 2011)",
  "key": {"BxPC-3 cells": {"tested_on": "BxPC-3 cells", "assay": "BxPC-3 cell proliferation (MTS)", "type": "cell-based", "details": "48 hours; for basal cell proliferation, mean: 0 μM mean 1.2", "method": "BxPC-3 cells were plated at 1.0×10^3 cells/well and treated with 0 μM, 1 μM, 10 μM, and 100 μM of cromolyn, and cell proliferation was analyzed after 48 hours. Means and 95% confidence intervals of three independent experiments performed in triplicate are shown. *, P=0.002; t, P<0.001 versus control. Growth of Panc-1 and BxPC3 pancreatic adenocarcinoma cells was analyzed using MTS reagent (Promega, Madison, Wis.) according to the manufacturer's directions. Purified S100P (100 nM final concentration) with or without cromolyn (100 μM final concentration) was added to Panc-1 cells. Only cromolyn (0-100 μM) was added to BxPC-3 cells, which express endogenous S100P. For both cell models, 1.0×10^3 cells/well were plated in 96-well culture dishes. Cells were treated with S100P, PDGF, or cromolyn, or a combination, followed immediately by treatment with either S100P or PDGF. MTS (20 μL per well) was added to cells at various times, and the mixture was incubated for 1 hour at 37° C. Samples were then read at 490 nm (as O.D. units) on a uQuant-Microplate Spectrophotometer (Bio-Tek Services Inc., Richmond, Va.). The assay was performed three times in triplicate."}, "NFκB promoter activity": {"tested_on": "NFκB promoter activity", "assay": "NFκB luciferase activity in vivo, orthotopic BxPC-3 tumors", "design": "species or system mice", "method": "FIGS. 3A, 3B, and 3C show the effect of cromolyn on S100P stimulated NFκB promoter activity in pancreatic cancer cells in vitro and in vivo. Panc-1 and BxPC-3 pancreatic cancer cell lines stably expressing an NFκB luciferase reporter were examined for the effects of S100P and cromolyn. […] Means and 95% confidence intervals are shown for three independent experiments performed in triplicate. *, P=0.022, †, P<0.001, and P<0.001 versus control; #, P=0.005 versus 100 nM S100P alone. […] Means and 95% confidence intervals are shown for three independent experiments performed in triplicate. *, P=0.003, †, P<0.001 versus control. […] After 1 week, tumor growth was assessed and NFκB activity was analyzed using an IVIS system (Xenogen Corp., Alameda, Calif.) after injecting mice with D-luciferin (150 mg per kg body weight) (0 time point). The mice were treated with cromolyn (5 mg per kg body weight by intraperitoneal injection), and NFκB luciferase activity was analyzed again at 24 and 48 hours. *, P=0.005 versus control. Means and 95% confidence intervals are shown for two independent experiments (n=4 mice per group). Two-tailed two-sample (unpaired for in vitro and paired for in vivo studies) Student's t-tests were used to determine P values. To measure NFκB promoter activity in vivo, BxPC-3 cells (50,000/50 μL) stably expressing a Lenti-NFkB-luc reporter were transplanted orthotopically into the pancreas of 4-week-old male CB17 scid mice (n=4 mice per experiment). After 1 week mice were injected with D-luciferin (150 mg per kg body weight, i.p.), and basal NFκB activity was determined using the IVIS system. Subsequently, mice were injected with cromolyn (5 mg per kg body weight, i.p.), and NFκB luciferase activity was re-analyzed after 24 and 48 hours. These experiments were performed three times. To determine whether cromolyn treatment could also reduce NFκB activity in vivo, NFκB activity of BxPC-3 cells stably expressing an NFκB luciferase reporter construct that had been transplanted orthotopically into the pancreas of […] (n=4) was examined. After 1 week, NFκB luciferase activity was determined before (0 time point) and at 24 and 48 hours after a single dose of cromolyn (5 mg per kg body weight by intraperitoneal [i.p.] injection). Cromolyn administration reduced basal NFκB activity by at least 80% 24 hours after injection (0 h, mean=9.9×10^6 versus 24 h, mean=1.3×10^6 photons/sec, difference=8.6×10^6 photons/sec, 95% CI=3.1×10^6 to 1.4×10^7 photons/sec; P=0.005, FIG. 3C)."}, "S100P binding with RAGE": {"biological_target": "T1, S100P binding with RAGE (Homo sapiens, UniProt P25815)", "T1 construct": "full-length human S100P cDNA (NM_005980) was cloned into the pTrcHis2 vector; His; made in house; host or cells: bacteria (S100P)", "T1 sequence (P25815 1-95)": "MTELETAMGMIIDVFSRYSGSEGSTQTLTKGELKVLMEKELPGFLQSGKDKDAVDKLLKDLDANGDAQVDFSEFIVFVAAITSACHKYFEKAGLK", "assay": "ELISA of S100P binding to RAGE (sRAGE coated plate)", "method": "After removing un-bound S100P by washing with detergent, the bound S100P and RAGE complex was quantified by adding HRP labeled antibody against S100P. *, P=0.04 C5 1 μM versus cromolyn 5 μM. Two-tailed two-sample (unpaired) Student's t-tests were used to determine P values.\nThe plate was washed and the amount of bound S100P was quantitated using anti-S100P antibody.\nThe binding of S100P to RAGE was determined using an ELISA assay. sRAGE was attached to the dish and recombinant S100P (50 ng) was added with or without the indicated concentrations of cromolyn analogs. The plate was washed and the amount of bound S100P was quantitated using anti-S100P antibody."}, "NFκB activity": {"tested_on": "NFκB activity", "assay": "S100P stimulated NFκB luciferase reporter in MPanc-96 cells", "type": "cell-based, Human", "details": "S100P 100 nM, compound 1 μM, 5 hours", "method": "MPanc-96 pancreatic cancer cell lines stably expressing an NFκB luciferase reporter were examined for the effects of S100P, cromolyn and C5. Cells were plated at 5.0×10^3 cells/well, treated for 5 hours with 100 nM of S100P, with or without cromolyn and C5 (1 μM), and activity of a luciferase gene driven by the NFkB promoter was analyzed. P=0.05 C5 versus cromolyn. Two-tailed two-sample (unpaired) Student's t-tests were used to determine P values."}, "S100B with RAGE": {"biological_target": "T2, S100B with RAGE (Homo sapiens, UniProt P04271)", "T2 sequence (P04271 1-92)": "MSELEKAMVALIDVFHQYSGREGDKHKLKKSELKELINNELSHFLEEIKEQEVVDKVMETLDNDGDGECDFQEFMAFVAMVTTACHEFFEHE", "assay": "ELISA of S100B binding to RAGE (sRAGE coated plate)", "description": "After removing un-bound S100B by washing with detergent, bound S100B and RAGE complex was quantified by adding HRP labeled antibody against S100B."}, "SW480 cells": {"tested_on": "SW480 cells", "assay": "SW480 colon cancer cell invasion (matrigel, transwell)", "type": "cell-based", "details": "cromolyn 10 μM and 100 μM, 24 hours", "method": "SW480 cells were plated on top of a layer of matrigel in a Boyden type chamber (transwell). Media containing 5% FBS was placed in the lower well and the cells were allowed to invade the matrigel layer for 24 hours in the presence of different concentrations of cromolyn."}},
  "note": "Entries after “also recorded” stand apart in the source; their conditions may differ.",
  "data": [
    {"compound": "O=C(O)c1cc(=O)c2c(OCC(O)COc3cccc4oc(C(=O)O)cc(=O)c34)cccc2o1", "note": "[cromolyn, disodium 1,3-bis[(2′-carboxylatochromon-5′-yl)oxy]-2-hydroxypropane]", "values": [
      {"measurement": "basal cell proliferation, difference versus 0 μM", "setting": "BxPC-3 cells; cromolyn 10 μM", "result": 0.5, "unit": "MTS units"},
      {"measurement": "basal cell proliferation, mean", "setting": "BxPC-3 cells; cromolyn 10 μM", "result": 0.7, "unit": "MTS units"},
      {"measurement": "basal cell proliferation, difference versus 0 μM", "setting": "BxPC-3 cells; cromolyn 100 μM", "result": 0.6, "unit": "MTS units"},
      {"measurement": "basal cell proliferation, mean", "setting": "BxPC-3 cells; cromolyn 100 μM", "result": 0.6, "unit": "MTS units"},
      {"measurement": "NFκB luciferase activity, difference 0 h versus 24 h", "setting": "NFκB promoter activity; cromolyn 5 mg per kg i.p., 24 h", "result": "8.6×10^6 photons/sec"},
      {"measurement": "NFκB luciferase activity, mean", "setting": "NFκB promoter activity; cromolyn 5 mg per kg i.p., 24 h, 0 h mean 9.9×10^6", "result": "1.3×10^6 photons/sec"},
      {"measurement": "NFκB activity", "setting": "NFκB promoter activity; cromolyn 5 mg per kg i.p., 48 hours after injection", "result": "returned to control levels"},
      {"measurement": "reduction of basal NFκB activity", "setting": "NFκB promoter activity; single dose cromolyn 5 mg per kg i.p., 24 hours after injection", "result": "at least 80%"},
      {"measurement": "blocking of the interaction / binding of S100P with RAGE", "setting": "S100P binding with RAGE", "result": "blocked; also recorded: able to block"},
      {"measurement": "concentration achieving the same level of S100P inhibition", "setting": "S100P binding with RAGE; FIG. 7", "result": 5, "unit": "µM"},
      {"measurement": "NFκB activity in pancreatic cancer cells in vitro", "setting": "NFκB activity", "result": "inhibit"},
      {"measurement": "interaction of S100B with RAGE", "setting": "S100B with RAGE", "result": "inhibit"},
      {"measurement": "invasiveness of SW480 cells", "setting": "SW480 cells", "result": "reduced the invasiveness"}
    ]}
  ]
}
